This assay concerns 661W photoreceptors. Put plainly: Microglia-photoreceptor interaction assay: 661W viability (MTT) in conditioned media of LPS-stimulated BV2 microglia. The following applies: BV2 pre-treated before LPS 50 ng/ml; 661W exposed 24 h; TMX 3 and 5 μg/ml, raloxifene 0.3-3 μM, G-1 1 μM, GPR30 antagonist 100 nM.

Molecules are shown by their SMILES.

Protocol: 661W photoreceptors cultured in 96-well plate (4×10^4 cells/well) were exposed to conditioned media from LPS-stimulated (50 ng/ml) BV2 microglia (cultured in 6-well plate with a cell density of 4×10^5 cells/well) for 48 h. […] Cell viability of 661W photoreceptors were assessed using a MTT assay.
Murine microglial cell line (BV-2) cells and photoreceptor-like cell line (661W) were used in this study. BV-2 cells were plated in 6-well plates at the density of 4×10^5/well and cultured for 24 h in DMEM medium (Life Technologies Corporation, Grand Island, N.Y.) containing 5% heat inactivated FBS (Life Technologies Corporation, Grand Island, N.Y.) at 37° C. in a humidified atmosphere of 5% CO2. […] Cell viability of 661W photoreceptors were assessed using a MTT cell proliferation assay kits (ATCC, Manassas, Va.) following the manufacturer's specifications. […]
661W photoreceptors cultured in 96-well plate (4×10^4 cells/well) were exposed to conditioned media from LPS-stimulated (50 ng/ml) BV2 microglia (cultured in 6-well plate with a cell density of 4×10^5 cells/well) for 24 h. […] Cell viability of 661W photoreceptors were assessed using a MTT assay.

As to `O=C(c1ccc(OCCN2CCCCC2)cc1)c1c(-c2ccc(O)cc2)sc2cc(O)ccc12` [raloxifene, [6-hydroxy-2-(4-hydroxyphenyl)-benzothiophen-3-yl]-[4-[2-(1-piperidyl)ethoxy]phenyl]-methanone], the “neurotoxicity of microglia-conditioned media to 661W photoreceptors (viability, MTT)” value was “significantly reduced neurotoxicity”.

In the case of `CC(=O)c1ccc2c(c1)C1C=CCC1C(c1cc3c(cc1Br)OCO3)N2` (centres unmarked) [G-1], the “neurotoxicity of microglia-conditioned media to 661W photoreceptors (viability, MTT)” value is “significantly reduced neurotoxicity”.

The values above are taken from patent US11040019B2, “Selective estrogen-receptor modulators (SERMs) confer protection against photoreceptor degeneration” (THE UNITED STATES OF AMERICA, as represented by the …, priority 2016, dated 2021).
